This note sets out measurements from article PMC4685510, “A Cell Biologist’s Field Guide to Aurora Kinase Inhibitors” (Frontiers in Oncology, 2015).

Experiment in all cases: biochemical
Assay type in all cases: biochemical

Test [1] addresses T1, 363 human kinases (including Aurora A/B/C) (Homo sapiens, UniProt Q06418).
T1 sequence (Q06418 41-890): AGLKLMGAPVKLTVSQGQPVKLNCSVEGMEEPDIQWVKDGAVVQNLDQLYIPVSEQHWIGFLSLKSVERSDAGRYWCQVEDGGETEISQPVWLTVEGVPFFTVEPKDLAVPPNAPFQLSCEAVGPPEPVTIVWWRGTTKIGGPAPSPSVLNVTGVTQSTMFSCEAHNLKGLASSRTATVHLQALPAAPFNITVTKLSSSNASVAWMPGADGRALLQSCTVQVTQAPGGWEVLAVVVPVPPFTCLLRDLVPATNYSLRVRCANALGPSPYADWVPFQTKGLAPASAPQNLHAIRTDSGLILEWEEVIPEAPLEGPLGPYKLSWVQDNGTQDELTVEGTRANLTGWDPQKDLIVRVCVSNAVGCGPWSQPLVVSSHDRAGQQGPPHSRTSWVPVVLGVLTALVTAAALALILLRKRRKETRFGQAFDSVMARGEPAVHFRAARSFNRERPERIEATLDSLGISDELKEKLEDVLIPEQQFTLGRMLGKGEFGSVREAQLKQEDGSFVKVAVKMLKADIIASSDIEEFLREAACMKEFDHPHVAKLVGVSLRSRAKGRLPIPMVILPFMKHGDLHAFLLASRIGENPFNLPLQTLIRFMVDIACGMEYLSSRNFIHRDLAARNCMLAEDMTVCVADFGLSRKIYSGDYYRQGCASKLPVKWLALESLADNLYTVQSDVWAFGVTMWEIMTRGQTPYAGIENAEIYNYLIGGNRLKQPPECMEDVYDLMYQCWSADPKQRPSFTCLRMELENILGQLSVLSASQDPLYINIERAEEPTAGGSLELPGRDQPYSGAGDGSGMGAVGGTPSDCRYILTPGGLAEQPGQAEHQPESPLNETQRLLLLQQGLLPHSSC
As to conditions: TYRO3/SKY; for remaining activity at 0.5 µM / remaining activity at 0.1 µM: read-out: % Enzyme Activity (relative to DMSO controls); for remaining activity at 0.1 µM: 100 nM.
From the text: (§1) However, the Aurora A/B selectivity ratios derived from our in vitro and in vivo data can be compared to prioritize inhibitors.

Test [2] addresses T2, 363 human kinases (including Aurora A/B/C) (Homo sapiens, UniProt Q8WTQ7).
T2 sequence (Q8WTQ7 1-553): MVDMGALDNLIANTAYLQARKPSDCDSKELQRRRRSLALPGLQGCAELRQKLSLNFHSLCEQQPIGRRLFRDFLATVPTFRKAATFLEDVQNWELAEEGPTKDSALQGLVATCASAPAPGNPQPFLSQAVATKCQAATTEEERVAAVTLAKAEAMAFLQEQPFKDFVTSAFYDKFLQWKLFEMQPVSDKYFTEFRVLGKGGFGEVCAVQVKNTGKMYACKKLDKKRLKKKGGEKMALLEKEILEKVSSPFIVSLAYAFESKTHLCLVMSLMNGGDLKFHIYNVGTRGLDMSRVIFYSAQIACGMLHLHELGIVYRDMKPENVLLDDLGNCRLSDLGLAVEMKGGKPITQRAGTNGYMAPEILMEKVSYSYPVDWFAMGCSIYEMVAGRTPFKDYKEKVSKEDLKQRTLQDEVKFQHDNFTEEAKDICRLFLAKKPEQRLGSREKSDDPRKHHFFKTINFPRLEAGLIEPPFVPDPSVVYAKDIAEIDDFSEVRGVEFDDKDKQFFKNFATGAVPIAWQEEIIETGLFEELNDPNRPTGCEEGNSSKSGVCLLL
As to conditions: GRK7; for remaining activity at 0.5 µM / remaining activity at 0.1 µM: read-out: % Enzyme Activity (relative to DMSO controls); for remaining activity at 0.1 µM: 100 nM.
From the text: as §1

In test [3] the target is 363 human kinases (including Aurora A/B/C) (Homo sapiens, UniProt Q9UQM7). Conditions: CAMK2a, [ATP] 100 µM; for remaining activity at 0.5 µM / remaining activity at 0.1 µM: read-out: % Enzyme Activity (relative to DMSO controls); for remaining activity at 0.1 µM: 100 nM.
363 human kinases (including Aurora A/B/C) (Homo sapiens, UniProt Q9UQM7), sequence (Q9UQM7 whole entry): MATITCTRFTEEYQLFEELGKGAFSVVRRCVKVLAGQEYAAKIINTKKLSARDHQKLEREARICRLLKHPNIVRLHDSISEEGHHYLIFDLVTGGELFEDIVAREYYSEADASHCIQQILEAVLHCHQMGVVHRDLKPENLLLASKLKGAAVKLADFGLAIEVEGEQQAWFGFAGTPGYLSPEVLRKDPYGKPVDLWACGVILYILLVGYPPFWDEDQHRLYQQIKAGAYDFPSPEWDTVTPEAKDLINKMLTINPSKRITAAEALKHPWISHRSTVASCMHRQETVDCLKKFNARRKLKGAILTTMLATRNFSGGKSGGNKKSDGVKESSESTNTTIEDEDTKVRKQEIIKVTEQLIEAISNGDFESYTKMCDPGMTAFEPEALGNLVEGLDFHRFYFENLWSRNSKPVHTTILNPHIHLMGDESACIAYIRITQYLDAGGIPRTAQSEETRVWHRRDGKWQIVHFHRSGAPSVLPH
From the text: as §1
Test [4] addresses T3, 363 human kinases (including Aurora A/B/C) (Homo sapiens, UniProt Q9NRH2).
T3 sequence (Q9NRH2 1-765): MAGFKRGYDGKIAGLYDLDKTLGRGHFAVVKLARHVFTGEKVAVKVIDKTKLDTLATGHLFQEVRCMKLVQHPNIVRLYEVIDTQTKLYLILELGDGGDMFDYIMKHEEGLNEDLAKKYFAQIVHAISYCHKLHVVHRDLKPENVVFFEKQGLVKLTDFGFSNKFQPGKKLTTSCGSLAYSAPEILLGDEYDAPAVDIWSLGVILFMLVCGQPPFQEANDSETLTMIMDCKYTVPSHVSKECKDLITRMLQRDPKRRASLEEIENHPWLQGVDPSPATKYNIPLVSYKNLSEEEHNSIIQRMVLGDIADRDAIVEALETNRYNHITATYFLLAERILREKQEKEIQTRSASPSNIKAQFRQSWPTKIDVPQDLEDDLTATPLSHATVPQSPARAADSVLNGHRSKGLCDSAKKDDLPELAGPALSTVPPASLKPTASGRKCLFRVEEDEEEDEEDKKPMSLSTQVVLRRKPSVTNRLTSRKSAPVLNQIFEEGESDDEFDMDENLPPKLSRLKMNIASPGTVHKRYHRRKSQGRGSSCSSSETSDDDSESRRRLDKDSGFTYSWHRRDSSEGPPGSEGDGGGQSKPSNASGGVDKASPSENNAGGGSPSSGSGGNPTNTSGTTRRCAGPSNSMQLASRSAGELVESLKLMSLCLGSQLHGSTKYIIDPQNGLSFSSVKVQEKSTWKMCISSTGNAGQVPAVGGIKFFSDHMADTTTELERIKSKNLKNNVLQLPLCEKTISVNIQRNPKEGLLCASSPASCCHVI
Conditions: SNRK; for remaining activity at 0.5 µM / remaining activity at 0.1 µM: read-out: % Enzyme Activity (relative to DMSO controls); for remaining activity at 0.1 µM: 100 nM.
From the text: as §1

Take `O=C(c1cccc(Cl)c1F)N1CCN(Cc2cccc(Nc3nccs3)n2)CC1` [MK-8745]: the “% Enzyme Activity (relative to DMSO controls)” value in test [1] (500 nM) is on record as 27.58%; in test [2] (500 nM) it was 97.48%; in test [3] (500 nM), 101.40%; in test [4] (500 nM), 90.66%. Also, the remaining activity at 0.5 µM in test [1] (500 nM) turned out to be 29.3%; in test [2] (500 nM), 101%; in test [3] (500 nM), 104%; in test [4] (500 nM), 92.9%.

In the case of `CCn1cc(-c2ccnc3[nH]c(-c4cccc(CN(C)C)c4)cc23)c(-c2ccc(NC(=O)N(C)C)cc2)n1` [GSK1070916], the remaining activity at 0.1 µM turned out to be 83.8% in test [1], 100% in test [2], 102% in test [3] and 89.8% in test [4].

For `O=C(O)[C@]1(Cc2cccc(Nc3nccs3)n2)CC[C@@H](Oc2cccc(Cl)c2F)CC1` [MK-5108], the remaining activity at 0.1 µM in test [1] came out at 75.9%; in test [2] it was 98.7%; in test [3], 95.4%; in test [4], 95.3%. Also, the remaining activity at 0.5 µM in test [1] (500 nM) turned out to be 40.6%; in test [2] (500 nM), 94.2%; in test [3] (500 nM), 101%; in test [4] (500 nM) it was 88.9%.
